Measured values published in US20240309014A1, “MACROCYCLIC COMPOUNDS AND USES THEREOF” (President and Fellows of Harvard College, priority 2017, published 2024).

Key:
[1] = system: human squamous cell carcinoma of the head and neck (SCCHN) cell line FaDu; test: FaDu growth inhibition assay; type: cell-based; conditions: 3 days incubation, CellTiter-Glo
Protocol: (§1) In this assay, the growth inhibitory activity of test compounds in a human squamous cell carcinoma of the head and neck (SCCHN) cell line FaDu was measured. FaDu cells were maintained in an RPMI-1640 (Wako Pure Chemical Industries, Ltd., 187-02021) medium containing 10% fetal bovine serum (FBS: Nichirei, 12D168), and penicillin and streptomycin in a 5% CO2 incubator (37° C.). To each well of a 96 well plate (Becton, Dickinson and Company, 353219), 75 μL of FaDu cell suspension adjusted to a concentration of 4×10^4 cells/mL with the culture medium was added, and the cells were incubated overnight in a 5% CO2 incubator (37° C.). On the next day, 25 μL of Compound (1) or Halichondrin B in three-fold dilution series suspended in the culture medium was added to each well, and the resultant was incubated for 3 days in a 5% CO2 incubator (37° C.). Then, cell viability was determined by CellTiter-Glo® Luminescent Cell Viability Assay (Promega) with EnVision 2103 Multilabel Reader (Perkin-Elmer, Wellesley, MA). Value of the wells containing cells without adding the test compounds was defined as 100% and the value of the wells containing no cells was defined as 0%. The concentration of the test compound necessary for inhibiting the cell growth by 50% (i.e., an IC50 value) was calculated, and shown in Table 1.

[2] = system: human breast cancer cell line MDA-MB231; test: MDA-MB231 growth inhibition assay; type: cell-based; conditions: 3 days incubation, CellTiter-Glo
Protocol: as §1, with “breast cancer” for “squamous cell carcinoma of the head and neck (SCCHN)”, “MDA-MB231” for “FaDu”, “Dulbecco's Modified Eagle's medium” for “an RPMI-1640”, “044-29765)” for “187-02021)”, “2.” for “1.”

[3] = system: FaDu subcutaneous xenograft; test: FaDu subcutaneous xenograft model in combination with cetuximab; type: in vivo, nude mice
Source text: A human squamous cell carcinoma of the head and neck (SCCHN) cell line FaDu, which had been cultured in an RPMI-1640 medium containing 10% FBS, and penicillin and streptomycin, was adjusted to a concentration of 5×10^7 cells/mL with Hanks' Balanced Salt Solution to prepare a cell suspension. The cell suspension was inoculated in a volume of […] into a subcutaneous part of a right flank of nude mice, 7 weeks of ages (CAnN.Cg-Foxnlnu/CrlCrlj, female, Charles River Laboratories Japan Inc.). Ten days after cell inoculation, the shortest diameter and the longest diameter of a tumor in each mouse were measured by using an electronic digital caliper (Digimatic™ caliper, Mitutoyo Corporation), so as to calculate the volume of the tumor in accordance with the following calculation formulae: […]
On the basis of the volumes of tumors obtained on the first day of administration, the mice were grouped such that averages of the tumor volumes were substantially equal among the groups. Each test compound was dissolved in DMSO and a solution was stored at the freezer before use. Immediately before the administration, the stock solution was diluted in saline with 100 μM of hydroxypropyl-β-cyclodextrin. […] Incidentally, the experiment was conducted on groups each consisting of 4 mice.

[4] = system: CD31-positive vessel in FaDu tumor; test: Effect on CD31-positive vessel in the FaDu subcutaneous model (Test Example 9); type: in vivo, nude mice; conditions: five days after administration
Protocol: A human squamous cell carcinoma of the head and neck (SCCHN) cell line FaDu, which had been cultured in an RPMI-1640 medium containing 10% FBS, and penicillin and streptomycin, was adjusted to a concentration of 5×10^7 cells/mL with PBS to prepare a cell suspension. The cell suspension was inoculated in a volume of 100 μL into a subcutaneous part of a right flank of nude mice, 7 weeks of ages (CAnN.Cg-Foxnlnu/CrlCrlj, female, Charles River Laboratories Japan, Inc.). Ten days after cell inoculation, a test compound in saline with 100 μM of hydroxypropyl-β-cyclodextrin was intravenously administered at doses from ½ MTD to MTD. The experiment was conducted on groups each consisting of 3 mice. Five days after administration, tumor samples were collected and fixed with IHC Zinc Fixative (BD Pharmingen) at 4° C. for 24 hr. Paraffin-embedded tissues were sectioned ([…]), mounted on positively charged slides, and air-dried. Immunohistochemical staining of CD31 was conducted using Ventana autostainer model Discover XT (Roche Diagnostics) according to the manufacture's protocol. Sections were deparaffinized, conditioned and the antigens were retrieved with CC1 (Ventana Medical Systems). Slides were blocked with Blocker A and Blocker B (Endogenous biotin blocking kit, Roche Diagnostics). Rat anti-mouse IgG CD31 antibody (Dianova GmbH) was applied at 2 μg/mL. Sections were incubated with the antibody for 6 hr, followed by 32 minutes incubation with biotinylated anti-rat IgG antibody (Jackson ImmunoResearch Laboratories) at 2.2 μg/mL. The detection was performed with Streptavidin-HRP D for 16 min, followed by incubation with DAB D and DAB H2O2 D (DABMap kit, Ventana Medical Systems, Inc) for 8 min. Slides were counterstained with Hematoxylin II (Roche Diagnostics) for 16 min, followed by incubation with Bluing reagent for 4 min. Sections were dehydrated in graded ethanols, defatted in xylene replacement and covered with DPX (Merck KGaA).
Immunostained slides were scanned using Vectra 2 Automated Slide Imaging System (Perkin Elmer Inc.). The number of blood vessels in the whole tumor was quantified by counting the CD31-positive objects using in Form 2 software (PerkinElmer Inc.) Area of the tumor region was measured by assessing the hematoxylin-staining area using inform 2 software (PerkinElmer Inc.) The number of blood vessels was normalized by the area of the tumor region. An increase rate of the blood vessel number of the test compound-dosing group was calculated with the below formula, and shown in Table 9.

[5] = ¼ MTD i.v. (Halichondrin B 0.0125 mg/kg, Compound (1) 0.05 mg/kg) + cetuximab 20 mg/kg
[6] = ½ MTD i.v. (Halichondrin B 0.025 mg/kg, Compound (1) 0.1 mg/kg) + cetuximab 20 mg/kg
[7] = MTD i.v. (Halichondrin B 0.05 mg/kg, Compound (1) 0.20 mg/kg)
[8] = ½ MTD i.v. (Halichondrin B 0.025 mg/kg, Compound (1) 0.10 mg/kg)

In the case of `C=C1C[C@@H]2CC[C@@]34C[C@H]5O[C@H]6[C@@H](O3)[C@H]3O[C@H](CC[C@@H]3O[C@H]6C5O4)CC(=O)O[C@@H]3[C@@H](C)[C@@H]4O[C@@H]5C[C@]6(C[C@@H]7O[C@]8(C[C@H](C)[C@@H]9O[C@H](CN)[C@H](O)C[C@@H]9O8)C[C@H](C)[C@@H]7O6)O[C@@H]5C[C@@H]4O[C@H]3C[C@H]3O[C@@H](CC[C@@H]1O2)C[C@@H](C)C3=C` (stereo in doubt) [Compound (1)], the IC50 ([1]; Homo sapiens, FaDu, 72 h) is reported as 0.0714 nM, the IC50 ([2]; Homo sapiens, MDA-MB-231, 72 h) is reported as 0.109 nM and the “Tumor Regression on day 35 (%)” value [3, 5] is reported as 38%. The “Tumor Regression on day 35 (%)” value [3, 6] was 60%, the “Increase rate of blood vessel number (%)” value [4, 7] was 154% and the “Increase rate of blood vessel number (%)” value [4, 8] was 69%.

For `C=C1C[C@@H]2CC[C@@]34C[C@H]5O[C@H]6[C@@H](O3)[C@H]3O[C@H](CC[C@@H]3O[C@H]6[C@H]5O4)CC(=O)O[C@@H]3[C@@H](C)[C@@H]4O[C@@H]5C[C@]6(C[C@@H]7O[C@]8(C[C@H](C)[C@@H]9O[C@H]([C@@H](O)C[C@@H](O)CO)C[C@@H]9O8)C[C@H](C)[C@@H]7O6)O[C@@H]5C[C@@H]4O[C@H]3C[C@H]3O[C@@H](CC[C@@H]1O2)C[C@@H](C)C3=C` [Halichondrin B, reference compound], the IC50 [1] was 0.124 nM, the IC50 [2] was 1 nM and the “Tumor Regression on day 35 (%)” value [3, 5] was −38%. For the same compound, the “Tumor Regression on day 35 (%)” value [3, 6] was −2%, the “Increase rate of blood vessel number (%)” value [4, 7] was 39% and the “Increase rate of blood vessel number (%)” value [4, 8] was 31%.
